Assays:
Format in all cases: cell-based
Enterobacter cloacae = experiment: MIC against Gram-negative bacteria: Enterobacter cloacae; conditions: for MIC against E. cloacae / MIC (μg/mL) E. cloacae: 5×10^5 CFU/mL
Method in brief: (§1)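 Broth microdilution, LB medium, final inoculum 5×10^5 CFU/mL from McFarland 0.5 cultures. Recombinant human EGF domain proteins tested in two-fold steps, n=3. MIC: lowest concentration, no growth.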

Pseudomonas aeruginosa = experiment: MIC against Gram-negative bacteria: Pseudomonas aeruginosa; conditions: for MIC against P. aeruginosa / MIC (μg/mL) P. aeruginosa: 5×10^5 CFU/mL
Method in brief: as §1

E. coli BL21 = experiment: MIC against Gram-negative bacteria: E. coli BL21; conditions: E. coli BL21; for MIC against E. coli BL21 / MIC (μg/mL) E. coli BL21: 5×10^5 CFU/mL
Method in brief: as §1

Klebsiella pneumonia = experiment: MIC against Gram-negative bacteria: Klebsiella pneumonia; conditions: for MIC against K. pneumonia / MIC (μg/mL) K. pneumonia: 5×10^5 CFU/mL
Method in brief: as §1

Citrobacter diversus = experiment: MIC against Gram-negative bacteria: Citrobacter diversus; conditions: for MIC against C. diversus / MIC (μg/mL) C. diversus: 5×10^5 CFU/mL
Method in brief: as §1

E. coli DH5α = experiment: Antibacterial activity: MIC and growth curve against E. coli DH5α in 96-well plate; conditions: minimal inhibitory concentration against E. coli DH5α; 96-well plate, 5×10^5 CFU/mL, 37° C., judged after 8 h
Method in brief: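 Log-phase DH5α (OD600 about 0.5, 37° C, 185 rpm in LB) was pelleted, resuspended in fresh LB and seeded at 5×10^5 CFU/mL with recombinant protein at 50, 25 and 12.5 μg/mL (two-fold series), in triplicate. Plates were shaken at 175 rpm, 37° C, and OD600 was read every 30 min. MIC was the lowest concentration with no growth.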

Serratia marcescens = experiment: MIC against Gram-negative bacteria: Serratia marcescens; conditions: for MIC against S. marcescens / MIC (μg/mL) S. marcescens: 5×10^5 CFU/mL
Method in brief: as §1

Proteus vulgaris = experiment: MIC against Gram-negative bacteria: Proteus vulgaris; conditions: for MIC against P. vulgaris / MIC (μg/mL) P. vulgaris: 5×10^5 CFU/mL
Method in brief: as §1

Aeromonas hydrophila = experiment: MIC against Gram-negative bacteria: Aeromonas hydrophila; conditions: for MIC against A. hydrophila / MIC (μg/mL) A. hydrophila: 5×10^5 CFU/mL
Method in brief: as §1

Moraxella catarrhalis = experiment: MIC against Gram-negative bacteria: Moraxella catarrhalis; conditions: for MIC against M. catarrhalis / MIC (μg/mL) M. catarrhalis: 5×10^5 CFU/mL
Method in brief: as §1

Proteus mirabilis = experiment: MIC against Gram-negative bacteria: Proteus mirabilis; conditions: for MIC against P. mirabilis / MIC (μg/mL) P. mirabilis: 5×10^5 CFU/mL
Method in brief: as §1

[1] = Enterobacter cloacae, 10 h cultivation at 37° C.
[2] = Pseudomonas aeruginosa, 10 h cultivation at 37° C.
[3] = Klebsiella pneumonia, 10 h cultivation at 37° C.
[4] = Citrobacter diversus, 10 h cultivation at 37° C.
[5] = Serratia marcescens, 10 h cultivation at 37° C.
[6] = Proteus vulgaris, 10 h cultivation at 37° C.
[7] = Aeromonas hydrophila, 10 h cultivation at 37° C.
[8] = Moraxella catarrhalis, 10 h cultivation at 37° C.
[9] = Proteus mirabilis, 10 h cultivation at 37° C.
[10] = E. cloacae, 10 h cultivation at 37° C.
[11] = P. aeruginosa, 10 h cultivation at 37° C.
[12] = K. pneumonia, 10 h cultivation at 37° C.
[13] = C. diversus, 10 h cultivation at 37° C.
[14] = S. marcescens, 10 h cultivation at 37° C.
[15] = P. vulgaris, 10 h cultivation at 37° C.
[16] = A. hydrophila, 10 h cultivation at 37° C.
[17] = M. catarrhalis, 10 h cultivation at 37° C.
[18] = P. mirabilis, 10 h cultivation at 37° C.

Substance	MIC against E. cloacae (Enterobacter cloacae; [1])	MIC against P. aeruginosa (Pseudomonas aeruginosa; [2])	MIC against E. coli BL21 (E. coli BL21; 10 h cultivation at 37° C.)	MIC against K. pneumonia (Klebsiella pneumonia; [3])	MIC against C. diversus (Citrobacter diversus; [4])	MIC (E. coli DH5α)	MIC against S. marcescens (Serratia marcescens; [5])	MIC against P. vulgaris (Proteus vulgaris; [6])	MIC against A. hydrophila (Aeromonas hydrophila; [7])	MIC against M. catarrhalis (Moraxella catarrhalis; [8])	MIC against P. mirabilis (Proteus mirabilis; [9])	MIC (μg/mL) E. cloacae (Enterobacter cloacae; [10])	MIC (μg/mL) P. aeruginosa (Pseudomonas aeruginosa; [11])	MIC (μg/mL) E. coli BL21 (E. coli BL21; 10 h cultivation at 37° C.)	MIC (μg/mL) K. pneumonia (Klebsiella pneumonia; [12])	MIC (μg/mL) C. diversus (Citrobacter diversus; [13])	MIC (μg/mL) S. marcescens (Serratia marcescens; [14])	MIC (μg/mL) P. vulgaris (Proteus vulgaris; [15])	MIC (μg/mL) A. hydrophila (Aeromonas hydrophila; [16])	MIC (μg/mL) M. catarrhalis (Moraxella catarrhalis; [17])	further results
PRT1460 (CDCDTVGTRNGSILCDQIGGQCNCKRHVSGRQCNQCQNGFYNLQELDPDGCSP; listed as Homo sapiens)	25 µg/mL	25 µg/mL	25 µg/mL	50 µg/mL	25 µg/mL	12.5 µg/mL	50 µg/mL	25 µg/mL	12.5 µg/mL	50 µg/mL	12.5 µg/mL	–	–	–	–	–	–	–	–	–	–
PRT161 (KVDPCASSPCQNNGTCYVDGVHFTCNCSPGFTGPTCA; listed as Homo sapiens)	–	–	–	–	–	12.5 µg/mL	–	–	–	–	–	25 µg/mL	25 µg/mL	12.5 µg/mL	12.5 µg/mL	25 µg/mL	25 µg/mL	50 µg/mL	50 µg/mL	12.5 µg/mL	MIC (μg/mL) P. mirabilis (Proteus mirabilis; [18]): 25 µg/mL
PRT131 (AGHCSTYGHLCRNGGRCREKRRGVTCDCAFSAYDGPFCS; listed as Homo sapiens)	–	–	–	–	–	50 µg/mL	–	–	–	–	–	–	–	–	–	–	–	–	–	–	MIC (μg/mL) E. cloacae (Enterobacter cloacae; Enterobacter cloacae, 96-well plate, 37° C., 10 h): 12.5 µg/mL; MIC (μg/mL) P. aeruginosa (Pseudomonas aeruginosa; Pseudomonas aeruginosa, 96-well plate, 37° C., 10 h): 12.5 µg/mL; MIC (μg/mL) E. coli BL21 (E. coli BL21; 96-well plate, 37° C., 10 h): 12.5 µg/mL; MIC (μg/mL) K. pneumonia (Klebsiella pneumonia; Klebsiella pneumonia, 96-well plate, 37° C., 10 h): 12.5 µg/mL; MIC (μg/mL) C. diversus (Citrobacter diversus; Citrobacter diversus, 96-well plate, 37° C., 10 h): 12.5 µg/mL; MIC (μg/mL) S. marcescens (Serratia marcescens; Serratia marcescens, 96-well plate, 37° C., 10 h): 12.5 µg/mL; MIC (μg/mL) P. vulgaris (Proteus vulgaris; Proteus vulgaris, 96-well plate, 37° C., 10 h): 25 µg/mL; MIC (μg/mL) A. hydrophila (Aeromonas hydrophila; Aeromonas hydrophila, 96-well plate, 37° C., 10 h): 12.5 µg/mL; MIC (μg/mL) M. catarrhalis (Moraxella catarrhalis; Moraxella catarrhalis, 96-well plate, 37° C., 10 h): 25 µg/mL; MIC (μg/mL) P. mirabilis (Proteus mirabilis; Proteus mirabilis, 96-well plate, 37° C., 10 h): 100 µg/mL
PRT855 (DVDECATGRASCPRFRQCVNTFGSYICKCHKGFDLMYIGGKYQCH; listed as Homo sapiens)	–	–	–	–	–	50 µg/mL	–	–	–	–	–	12.5 µg/mL	50 µg/mL	12.5 µg/mL	25 µg/mL	12.5 µg/mL	12.5 µg/mL	12.5 µg/mL	50 µg/mL	12.5 µg/mL	MIC (μg/mL) P. mirabilis (Proteus mirabilis; [18]): 12.5 µg/mL
PRT1009 (DVDECLDQPCHPTGTAACHSLANAFYCQCLPGHTGQWCE; listed as Homo sapiens)	–	–	–	–	–	25 µg/mL	–	–	–	–	–	–	–	–	–	–	–	–	–	–	MIC (Enterobacter cloacae; [10]): 50 µg/mL; MIC (Pseudomonas aeruginosa; [11]): 50 µg/mL; MIC (E. coli BL21; 10 h cultivation at 37° C.): 12.5 µg/mL; MIC (Klebsiella pneumonia; [12]): 12.5 µg/mL; MIC (Citrobacter diversus; [13]): 12.5 µg/mL; MIC (Serratia marcescens; [14]): 100 µg/mL; MIC (Proteus vulgaris; [15]): 25 µg/mL; MIC (Aeromonas hydrophila; [16]): 25 µg/mL; MIC (Moraxella catarrhalis; [17]): 25 µg/mL; MIC (Proteus mirabilis; [18]): 50 µg/mL
PRT1405 (PTTQCIDPQCGGRGICIMGSCACNSGYKGESCE; listed as Homo sapiens)	12.5 µg/mL	12.5 µg/mL	12.5 µg/mL	12.5 µg/mL	12.5 µg/mL	12.5 µg/mL	12.5 µg/mL	50 µg/mL	12.5 µg/mL	12.5 µg/mL	12.5 µg/mL	–	–	–	–	–	–	–	–	–	–
